The test system of test [1] is BV-2. The experiment in a line: Anti-inflammatory activity against LPS/zVAD treated mouse BV-2 cells assessed as decrease in IL-1beta release at 100 nM by ELISA. It counts as functional, cell-based. In general terms: An ELISA detects its analyte on a solid surface through an enzyme-linked reagent.
Test [2] concerns Mus musculus. The experiment in a line: Anti-alzheimer activity against 5 month old APP/PS1 transgenic mouse model assessed as improved cognitive ability at 10 mg/kg, po administered 4 times per week for 4 weeks. It counts as functional, organism-based.
The target in test [3] is Cytochrome P450 2C19 (Homo sapiens, UniProt P33261). The experiment in a line: Inhibition of CYP2C19 (unknown origin) using S-mephenytoin as substrate incubated for 10 mins in presence of NADPH by LC-MS/MS analysis. It counts as ADME.
Test [4] concerns the target Mitogen-activated protein kinase kinase kinase kinase 4 (Homo sapiens, UniProt O95819). The experiment in a line: Inhibition of MAP4K4 (unknown origin) at 1 uM.
Test [5] addresses Cytochrome P450 2C8 (Homo sapiens, UniProt P10632). The test is described as follows: Inhibition of CYP2C8 (unknown origin) incubated for 10 mins in presence of NADPH by LC-MS/MS analysis. It counts as ADME.
The test system of test [6] is Mus musculus. The experiment in a line: Anti-alzheimer activity in 8 month old 3xTg mouse model assessed as reversal of transcriptomic changes in Plxnd1 at 10 mg/kg, po. It counts as functional, organism-based.
Test [7] relates to Microglia. The test is described as follows: Anti-necroptosis activity in LPS/zVAD stimulated mouse primary microglia transfected with HA-tagged MAP4K4 plasmid assessed as protection of microglia cells at 100 nM. It counts as functional, cell-based.
Test [8] relates to Mus musculus. The experiment in a line: Anti-alzheimer activity against 8 month old 3xTg mouse model assessed as improved spatial preference towards annulus at 10 mg/kg, po administered 4 times per week for 4 weeks. It counts as functional, organism-based.
Test [9] deals with Microglia. The experiment in a line: Anti-necroptosis activity in LPS/zVAD stimulated mouse primary microglia assessed as reversal of translucent cytoplasm by TEM analysis. It counts as functional, cell-based.
In test [10] the test system is Mus musculus. The experiment in a line: Downregulation of MAP4K4 phosphorylation in 3xTg mouse hippocampus at 2 to 10 mg/kg, po by immunohistochemistry analysis. It counts as functional, organism-based. The following applies: dose 2-10 mg/kg.
For test [11], the target named is Cytochrome P450 3A5 (Homo sapiens, UniProt P20815). The test is described as follows: Inhibition of CYP3A5 (unknown origin) using midazolam as substrate incubated for 10 mins in presence of NADPH by LC-MS/MS analysis. It counts as ADME.

Consider one compound from ChEMBL document CHEMBL6074641, “Polypharmacological Drug Design Guided by Integrating Phenotypic and Restricted Fragment Docking Strategies” (J Med Chem, 2024).

Calls of active or inactive are those of the source. The calls are words filed in the database; no cut-off is given here.

Chain of Cytochrome P450 2C19 (P33261 whole entry): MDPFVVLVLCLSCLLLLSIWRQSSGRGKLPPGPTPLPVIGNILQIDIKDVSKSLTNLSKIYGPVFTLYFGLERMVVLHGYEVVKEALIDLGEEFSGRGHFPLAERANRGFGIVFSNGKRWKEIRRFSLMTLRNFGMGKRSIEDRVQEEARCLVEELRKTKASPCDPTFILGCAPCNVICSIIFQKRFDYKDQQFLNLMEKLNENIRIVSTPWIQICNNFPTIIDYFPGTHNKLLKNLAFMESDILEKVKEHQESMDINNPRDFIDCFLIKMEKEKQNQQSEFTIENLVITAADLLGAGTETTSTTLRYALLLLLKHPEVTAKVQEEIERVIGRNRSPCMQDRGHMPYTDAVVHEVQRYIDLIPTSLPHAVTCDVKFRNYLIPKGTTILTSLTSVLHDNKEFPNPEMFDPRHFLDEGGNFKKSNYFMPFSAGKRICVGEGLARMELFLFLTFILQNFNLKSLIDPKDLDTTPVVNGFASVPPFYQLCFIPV
Chain of Mitogen-activated protein kinase kinase kinase kinase 4 (O95819 2-1239 limits assumed): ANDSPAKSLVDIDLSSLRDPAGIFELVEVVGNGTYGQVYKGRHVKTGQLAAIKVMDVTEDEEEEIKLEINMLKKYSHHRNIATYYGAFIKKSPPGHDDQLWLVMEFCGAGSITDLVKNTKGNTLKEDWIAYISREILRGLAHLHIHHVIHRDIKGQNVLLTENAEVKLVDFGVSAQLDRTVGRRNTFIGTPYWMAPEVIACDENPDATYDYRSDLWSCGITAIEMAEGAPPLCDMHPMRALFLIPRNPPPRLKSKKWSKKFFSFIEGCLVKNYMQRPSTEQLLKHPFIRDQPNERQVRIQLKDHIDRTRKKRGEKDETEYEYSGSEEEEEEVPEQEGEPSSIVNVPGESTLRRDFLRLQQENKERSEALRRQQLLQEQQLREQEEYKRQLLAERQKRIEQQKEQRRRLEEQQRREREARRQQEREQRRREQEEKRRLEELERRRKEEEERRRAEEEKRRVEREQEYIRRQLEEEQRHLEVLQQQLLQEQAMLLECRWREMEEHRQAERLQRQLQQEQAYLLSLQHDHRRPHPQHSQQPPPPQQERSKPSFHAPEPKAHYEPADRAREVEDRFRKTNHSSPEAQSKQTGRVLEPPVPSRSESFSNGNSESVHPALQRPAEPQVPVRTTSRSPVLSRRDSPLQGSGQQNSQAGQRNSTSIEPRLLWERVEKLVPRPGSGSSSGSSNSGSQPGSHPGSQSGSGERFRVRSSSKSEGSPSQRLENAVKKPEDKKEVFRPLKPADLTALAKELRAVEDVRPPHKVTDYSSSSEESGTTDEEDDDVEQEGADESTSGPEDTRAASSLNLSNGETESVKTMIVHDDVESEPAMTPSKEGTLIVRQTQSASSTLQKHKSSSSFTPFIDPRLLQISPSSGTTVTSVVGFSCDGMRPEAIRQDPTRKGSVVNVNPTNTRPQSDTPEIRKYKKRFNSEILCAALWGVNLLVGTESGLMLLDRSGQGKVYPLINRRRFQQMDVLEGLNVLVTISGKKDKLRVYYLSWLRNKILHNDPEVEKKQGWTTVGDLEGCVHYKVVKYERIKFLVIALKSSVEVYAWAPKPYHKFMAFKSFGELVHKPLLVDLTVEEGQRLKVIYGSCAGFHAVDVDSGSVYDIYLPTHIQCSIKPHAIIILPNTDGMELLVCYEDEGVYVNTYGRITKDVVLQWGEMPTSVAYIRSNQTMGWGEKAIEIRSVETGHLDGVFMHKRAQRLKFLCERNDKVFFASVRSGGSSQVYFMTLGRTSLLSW
Chain of Cytochrome P450 2C8 (P10632 whole entry): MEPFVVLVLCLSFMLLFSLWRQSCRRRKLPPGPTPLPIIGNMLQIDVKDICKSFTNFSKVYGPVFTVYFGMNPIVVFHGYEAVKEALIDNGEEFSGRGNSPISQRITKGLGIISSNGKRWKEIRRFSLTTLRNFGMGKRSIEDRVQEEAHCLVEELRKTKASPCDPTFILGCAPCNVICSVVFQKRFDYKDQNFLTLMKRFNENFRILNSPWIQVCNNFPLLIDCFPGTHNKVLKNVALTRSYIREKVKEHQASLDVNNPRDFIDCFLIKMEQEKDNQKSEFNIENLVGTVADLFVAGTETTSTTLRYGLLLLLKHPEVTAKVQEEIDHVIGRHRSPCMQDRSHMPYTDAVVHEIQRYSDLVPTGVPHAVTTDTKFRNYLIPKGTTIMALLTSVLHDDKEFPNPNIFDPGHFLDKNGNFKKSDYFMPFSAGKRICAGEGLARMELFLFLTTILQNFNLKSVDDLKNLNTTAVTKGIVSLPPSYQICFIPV
Chain of Cytochrome P450 3A5 (P20815 whole entry): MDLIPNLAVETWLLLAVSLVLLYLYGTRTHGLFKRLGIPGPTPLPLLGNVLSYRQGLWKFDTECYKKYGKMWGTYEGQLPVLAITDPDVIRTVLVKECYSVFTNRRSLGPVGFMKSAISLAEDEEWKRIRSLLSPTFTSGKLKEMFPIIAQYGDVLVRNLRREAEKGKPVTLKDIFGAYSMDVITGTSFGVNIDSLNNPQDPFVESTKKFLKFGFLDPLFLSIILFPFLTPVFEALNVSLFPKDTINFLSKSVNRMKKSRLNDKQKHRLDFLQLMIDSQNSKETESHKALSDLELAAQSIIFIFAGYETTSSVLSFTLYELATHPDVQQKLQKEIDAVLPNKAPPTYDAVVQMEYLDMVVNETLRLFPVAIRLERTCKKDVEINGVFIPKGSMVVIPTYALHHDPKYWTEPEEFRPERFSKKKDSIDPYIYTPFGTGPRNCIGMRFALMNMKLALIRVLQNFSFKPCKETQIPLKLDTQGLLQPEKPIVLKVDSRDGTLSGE

Turning to `Cc1cc(F)cc(Nc2ncc(Nc3ccc(SC(F)(F)F)cc3)cc2C(N)=O)c1`, the outcome in test [1], in test [2], in test [6], in test [8] and in test [9] was Active. In addition, the IC50 (as a rule, the midpoint of a concentration-inhibition curve) in test [3] was 8.3 µM; in test [5], 6.8 µM; in test [11], over 10 µM. Besides, the inhibition entry in test [4] was “Active”. The outcome in test [7] was inactive. For the same compound, in test [10], the Activity entry is “Active; Activity More Potent Than Nec-1”.
